The structures appear in SMILES notation.

For assay [1], the target named is Beta-1 adrenergic receptor (Cavia porcellus) (UniProt B0FL73). Kind of assay: Intrinsic activity was expressed as the ratio between maximal response elicited by compound and that elicited by full agonist ISO towards beta-1 receptor of isolated guinea pig atria. In kind it is functional.
For assay [2], the target named is T1, Beta-1 adrenergic receptor (Rattus norvegicus, UniProt P18090).
Description: Compound was evaluated for beta adrenergic binding affinity towards Beta-1 adrenergic receptor of rat brain
For assay [3], the target named is Beta-1 adrenergic receptor (Cavia porcellus) (UniProt B0FL73). Kind of assay: Compound was evaluated for beta adrenoceptor agonistic activity towards Beta-1 adrenergic receptor of isolated guinea pig atria. It counts as functional.
For assay [4], the target named is T2, Adrenergic receptor alpha-2 (Homo sapiens) (UniProt P08913+P18825+P18089). As to the kind of experiment: Compound was evaluated for alpha adrenoceptor agonistic activity towards alpha-2 adrenergic receptor of isolated guinea pig ileum. Particulars: Cavia porcellus, target entry is the homologue from another species. In kind it is functional, tissue-based.
Assay [5] has as its target Beta-2 adrenergic receptor (Cavia porcellus) (UniProt Q8K4Z4). Kind of assay: Compound was evaluated for beta adrenoceptor agonistic activity towards Beta-2 adrenergic receptor of isolated guinea pig tracheal strip. In kind it is functional.
The target in assay [6] is T2, Adrenergic receptor alpha-2 (Homo sapiens). Kind of assay: Intrinsic activity was expressed as the ratio between maximal response elicited by compound and that elicited by full agonist NE towards alpha-2 adrenergic receptor of isolated guinea pig ileum. It counts as functional, tissue-based. Particulars: Cavia porcellus.
In assay [7] the target is T3, Adrenergic receptor alpha-1 (Rattus norvegicus) (UniProt P15823+P23944+P43140). Kind of assay: Intrinsic activity was expressed as the ratio between maximal response elicited by compound and that elicited by full agonist NE towards Alpha-1 adrenergic receptor of isolated rat vas deferens. It counts as functional, tissue-based.
Assay [8] deals with T3, Adrenergic receptor alpha-1 (Rattus norvegicus). Kind of assay: Compound was evaluated for alpha adrenoceptor agonistic activity towards Alpha-1 adrenergic receptor of isolated rat vas deferens. It counts as functional, tissue-based.
The target in assay [9] is T4, Adrenergic receptor alpha-2 (Rattus norvegicus, UniProt P22086+P19328+P22909).
T4 sequence (P22086 whole entry): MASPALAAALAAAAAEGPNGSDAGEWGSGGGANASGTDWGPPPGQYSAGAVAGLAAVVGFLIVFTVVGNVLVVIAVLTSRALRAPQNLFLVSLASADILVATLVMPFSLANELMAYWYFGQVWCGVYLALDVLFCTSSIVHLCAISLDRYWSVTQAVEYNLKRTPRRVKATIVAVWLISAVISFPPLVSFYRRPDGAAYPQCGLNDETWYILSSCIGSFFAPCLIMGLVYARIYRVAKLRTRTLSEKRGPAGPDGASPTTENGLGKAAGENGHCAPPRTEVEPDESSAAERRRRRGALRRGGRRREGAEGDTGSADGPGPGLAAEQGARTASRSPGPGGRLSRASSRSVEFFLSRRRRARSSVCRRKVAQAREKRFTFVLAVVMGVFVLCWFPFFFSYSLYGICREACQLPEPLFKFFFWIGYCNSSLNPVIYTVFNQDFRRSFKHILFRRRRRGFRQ
T4 sequence (P19328 whole entry): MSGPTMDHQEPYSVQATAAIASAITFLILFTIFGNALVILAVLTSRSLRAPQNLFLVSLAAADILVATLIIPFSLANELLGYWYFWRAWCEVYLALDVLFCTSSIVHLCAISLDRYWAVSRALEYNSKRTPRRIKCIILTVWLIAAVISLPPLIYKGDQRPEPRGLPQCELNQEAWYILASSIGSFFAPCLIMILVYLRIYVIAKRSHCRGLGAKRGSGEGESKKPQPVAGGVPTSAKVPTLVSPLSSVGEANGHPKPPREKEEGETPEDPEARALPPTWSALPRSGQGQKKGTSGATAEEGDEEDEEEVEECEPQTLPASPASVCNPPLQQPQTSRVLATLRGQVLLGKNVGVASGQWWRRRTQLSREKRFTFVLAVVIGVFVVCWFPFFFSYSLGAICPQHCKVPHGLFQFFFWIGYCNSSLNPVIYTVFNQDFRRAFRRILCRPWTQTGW
T4 sequence (P22909 whole entry): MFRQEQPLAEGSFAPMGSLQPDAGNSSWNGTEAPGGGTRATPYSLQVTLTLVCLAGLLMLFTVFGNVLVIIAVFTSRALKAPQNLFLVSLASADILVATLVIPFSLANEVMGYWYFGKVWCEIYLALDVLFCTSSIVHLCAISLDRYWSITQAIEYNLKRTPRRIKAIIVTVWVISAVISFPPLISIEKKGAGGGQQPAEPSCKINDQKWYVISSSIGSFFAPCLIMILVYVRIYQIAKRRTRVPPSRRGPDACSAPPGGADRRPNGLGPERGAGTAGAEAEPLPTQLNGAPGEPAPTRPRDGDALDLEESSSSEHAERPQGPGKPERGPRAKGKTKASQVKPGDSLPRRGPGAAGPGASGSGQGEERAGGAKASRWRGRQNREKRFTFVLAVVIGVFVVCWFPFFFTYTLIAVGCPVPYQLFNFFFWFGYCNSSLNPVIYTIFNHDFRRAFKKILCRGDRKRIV
As to the kind of experiment: Binding affinity towards Alpha-2 adrenergic receptor of rat brain.

For assay [10], the target named is T5, Adrenergic receptor alpha-1 (Rattus norvegicus, UniProt P15823+P23944+P43140).
T5 sequence (P15823 whole entry): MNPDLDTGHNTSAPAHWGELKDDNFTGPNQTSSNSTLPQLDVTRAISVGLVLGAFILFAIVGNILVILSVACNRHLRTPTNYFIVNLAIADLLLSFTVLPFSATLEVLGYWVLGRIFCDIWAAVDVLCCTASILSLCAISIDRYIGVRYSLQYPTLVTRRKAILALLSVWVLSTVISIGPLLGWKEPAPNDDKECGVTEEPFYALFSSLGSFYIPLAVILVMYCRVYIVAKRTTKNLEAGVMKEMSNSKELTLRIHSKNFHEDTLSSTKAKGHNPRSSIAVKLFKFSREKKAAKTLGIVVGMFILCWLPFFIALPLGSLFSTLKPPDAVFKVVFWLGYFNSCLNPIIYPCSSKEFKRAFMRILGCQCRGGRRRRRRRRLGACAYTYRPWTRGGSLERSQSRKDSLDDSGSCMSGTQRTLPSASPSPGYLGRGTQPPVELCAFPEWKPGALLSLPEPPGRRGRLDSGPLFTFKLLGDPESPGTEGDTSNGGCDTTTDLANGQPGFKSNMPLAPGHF
T5 sequence (P23944 whole entry): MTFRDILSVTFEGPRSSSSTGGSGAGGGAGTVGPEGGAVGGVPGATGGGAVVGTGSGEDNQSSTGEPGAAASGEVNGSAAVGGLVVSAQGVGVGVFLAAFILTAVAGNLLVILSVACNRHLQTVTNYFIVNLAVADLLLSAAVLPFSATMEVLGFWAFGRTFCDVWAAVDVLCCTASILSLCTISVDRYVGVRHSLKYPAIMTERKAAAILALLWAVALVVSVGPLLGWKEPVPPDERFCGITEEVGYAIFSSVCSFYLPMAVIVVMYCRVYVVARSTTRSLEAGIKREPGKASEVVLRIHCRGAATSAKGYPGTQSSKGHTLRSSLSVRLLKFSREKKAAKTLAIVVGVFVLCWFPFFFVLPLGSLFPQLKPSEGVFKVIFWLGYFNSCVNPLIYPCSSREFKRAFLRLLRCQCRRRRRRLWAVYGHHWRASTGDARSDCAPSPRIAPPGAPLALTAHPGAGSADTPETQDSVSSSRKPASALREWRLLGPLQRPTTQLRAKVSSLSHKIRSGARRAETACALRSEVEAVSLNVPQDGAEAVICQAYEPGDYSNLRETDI
T5 sequence (P43140 whole entry): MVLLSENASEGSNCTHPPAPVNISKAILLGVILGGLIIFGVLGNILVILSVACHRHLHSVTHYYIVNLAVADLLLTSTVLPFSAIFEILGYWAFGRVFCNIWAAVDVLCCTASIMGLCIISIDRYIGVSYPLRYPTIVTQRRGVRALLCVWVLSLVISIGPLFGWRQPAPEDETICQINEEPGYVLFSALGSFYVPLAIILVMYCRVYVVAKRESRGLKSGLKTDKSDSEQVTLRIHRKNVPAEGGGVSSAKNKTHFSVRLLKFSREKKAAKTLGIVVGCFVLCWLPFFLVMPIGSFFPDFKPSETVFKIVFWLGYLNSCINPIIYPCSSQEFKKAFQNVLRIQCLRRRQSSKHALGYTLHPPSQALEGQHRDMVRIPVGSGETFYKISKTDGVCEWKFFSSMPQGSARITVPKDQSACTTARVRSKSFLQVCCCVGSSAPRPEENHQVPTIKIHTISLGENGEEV
As to the kind of experiment: Binding affinity towards Alpha-1 adrenergic receptor of rat brain.

Assay [11] addresses T6, Beta-2 adrenergic receptor (Bos taurus, UniProt Q28044). Kind of assay: Compound was evaluated for beta adrenergic binding affinity towards Beta-2 adrenergic receptor of bovine lung.
Assay [12] has as its target Beta-1 adrenergic receptor (Cavia porcellus) (UniProt B0FL73). Kind of assay: Intrinsic activity was expressed as the ratio between maximal response elicited by compound and that elicited by full agonist ISO towards beta 1 receptor of isolated guinea pig atria. It counts as functional.
The target of assay [13] is Beta-2 adrenergic receptor (Cavia porcellus) (UniProt Q8K4Z4). Kind of assay: Intrinsic activity was expressed as the ratio between maximal response elicited by compound and that elicited by full agonist ISO towards beta 2 receptor of isolated guinea pig tracheal strip (exp 2). In kind it is functional.
Assay [14] concerns the target T4, Adrenergic receptor alpha-2. Kind of assay: Compound was evaluated for alpha adrenergic binding affinity towards Alpha-2 adrenergic receptor of rat brain.
Assay [15] addresses Beta-1 adrenergic receptor (Cavia porcellus) (UniProt B0FL73). Kind of assay: Intrinsic activity was expressed as the ratio between maximal response elicited by compound and that elicited by full agonist ISO towards Beta-1 adrenergic receptor of isolated guinea pig atria (exp 1). In kind it is functional.
Assay [16] deals with T6, Beta-2 adrenergic receptor. Kind of assay: Compound was evaluated for beta adrenergic binding affinity towards beta-2 receptor of bovine lung.
In assay [17] the target is Beta-2 adrenergic receptor (Cavia porcellus) (UniProt Q8K4Z4). As to the kind of experiment: Intrinsic activity was expressed as the ratio between maximal response elicited by compound and that elicited by full agonist ISO towards Beta-2 adrenergic receptor of isolated guinea pig tracheal strip (exp 1). It counts as functional.
For assay [18] the target is unchanged. Kind of assay: Intrinsic activity was expressed as the ratio between maximal response elicited by compound and that elicited by full agonist ISO towards beta 2 receptor of isolated guinea pig tracheal strip (exp 1). It counts as functional.
Assay [19] addresses Beta-1 adrenergic receptor (Cavia porcellus) (UniProt B0FL73). As to the kind of experiment: Compound was evaluated for beta adrenergic […].
Assay [20] has the same target. Kind of assay: Compound was evaluated for beta adrenoceptor agonistic activity towards Beta-1 adrenergic receptor of isolated guinea pig atria (exp 1). In kind it is functional.
The target in assay [21] is T2, Adrenergic receptor alpha-2 (Homo sapiens). Particulars: Cavia porcellus; Ileum.
Description: Intrinsic activity was expressed as the ratio between maximal response elicited by compound and that elicited by full agonist NE towards Alpha-2 adrenergic receptor of isolated guinea pig ileum
Assay [22] concerns the target Beta-1 adrenergic receptor (Cavia porcellus) (UniProt B0FL73). Kind of assay: Compound was evaluated for beta adrenoceptor agonistic activity towards beta 1 receptor of isolated guinea pig atria (exp 2). It counts as functional.
The target of assay [23] is T1, Beta-1 adrenergic receptor. As to the kind of experiment: Compound was evaluated for beta adrenergic binding affinity towards beta-1 receptor of rat brain.
Assay [24] addresses Beta-2 adrenergic receptor (Cavia porcellus) (UniProt Q8K4Z4).
Description: Compound was evaluated for beta adrenoceptor agonistic activity towards Beta-2 adrenergic receptor of isolated guinea pig tracheal strip (exp 2)

Sequence of Beta-1 adrenergic receptor (Cavia porcellus) (B0FL73 1-467): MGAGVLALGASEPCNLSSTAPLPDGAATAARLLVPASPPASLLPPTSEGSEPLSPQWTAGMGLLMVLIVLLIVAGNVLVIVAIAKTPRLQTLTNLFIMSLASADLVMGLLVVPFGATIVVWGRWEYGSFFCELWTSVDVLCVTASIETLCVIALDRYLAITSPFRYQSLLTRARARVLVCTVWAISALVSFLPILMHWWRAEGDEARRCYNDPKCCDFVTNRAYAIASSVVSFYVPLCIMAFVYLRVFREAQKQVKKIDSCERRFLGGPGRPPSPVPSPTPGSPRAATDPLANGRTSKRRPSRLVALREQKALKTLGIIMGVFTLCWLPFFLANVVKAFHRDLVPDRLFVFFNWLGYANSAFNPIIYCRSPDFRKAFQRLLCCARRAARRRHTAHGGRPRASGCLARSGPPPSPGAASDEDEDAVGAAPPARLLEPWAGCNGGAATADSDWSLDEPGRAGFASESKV
T1 sequence (P18090 whole entry): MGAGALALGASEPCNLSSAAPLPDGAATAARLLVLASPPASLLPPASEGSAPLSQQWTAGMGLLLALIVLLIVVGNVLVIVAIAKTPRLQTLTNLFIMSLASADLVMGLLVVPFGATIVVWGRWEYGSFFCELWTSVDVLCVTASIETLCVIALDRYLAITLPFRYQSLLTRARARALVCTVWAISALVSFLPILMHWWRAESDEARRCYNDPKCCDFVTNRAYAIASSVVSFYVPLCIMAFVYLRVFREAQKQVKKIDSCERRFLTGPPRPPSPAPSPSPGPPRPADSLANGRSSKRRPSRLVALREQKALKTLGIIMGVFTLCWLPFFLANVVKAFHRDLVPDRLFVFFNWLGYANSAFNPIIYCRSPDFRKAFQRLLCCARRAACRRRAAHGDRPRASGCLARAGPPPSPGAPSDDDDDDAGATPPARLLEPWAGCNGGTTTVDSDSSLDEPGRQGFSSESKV
T6 sequence (Q28044 whole entry): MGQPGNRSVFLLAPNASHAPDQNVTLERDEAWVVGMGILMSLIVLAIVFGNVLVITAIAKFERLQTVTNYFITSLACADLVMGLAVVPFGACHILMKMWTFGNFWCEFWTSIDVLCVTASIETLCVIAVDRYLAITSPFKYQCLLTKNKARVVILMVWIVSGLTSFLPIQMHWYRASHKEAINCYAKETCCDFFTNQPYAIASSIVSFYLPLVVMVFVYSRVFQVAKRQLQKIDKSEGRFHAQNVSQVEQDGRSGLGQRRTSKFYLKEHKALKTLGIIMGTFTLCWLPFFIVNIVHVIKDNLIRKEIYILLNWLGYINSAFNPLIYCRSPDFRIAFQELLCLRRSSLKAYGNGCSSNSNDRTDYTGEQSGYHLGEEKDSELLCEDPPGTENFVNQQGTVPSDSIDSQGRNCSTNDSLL
Sequence of Beta-2 adrenergic receptor (Cavia porcellus) (Q8K4Z4 whole entry, looked up): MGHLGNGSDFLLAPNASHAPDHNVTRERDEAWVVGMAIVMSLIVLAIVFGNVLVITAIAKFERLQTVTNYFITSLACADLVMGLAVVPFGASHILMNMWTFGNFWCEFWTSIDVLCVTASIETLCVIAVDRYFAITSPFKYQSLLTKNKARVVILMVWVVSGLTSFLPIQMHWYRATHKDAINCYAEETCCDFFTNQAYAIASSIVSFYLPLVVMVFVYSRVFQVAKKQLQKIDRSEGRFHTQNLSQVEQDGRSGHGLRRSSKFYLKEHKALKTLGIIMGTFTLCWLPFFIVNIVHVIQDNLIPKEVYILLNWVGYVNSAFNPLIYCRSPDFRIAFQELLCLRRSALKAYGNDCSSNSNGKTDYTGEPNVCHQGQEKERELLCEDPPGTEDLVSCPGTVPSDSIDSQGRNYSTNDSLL

As for `N[C@@H]1CCc2cc(O)c(O)cc2[C@H]1O`, the Intrinsic activity in assay [1] is 0.81; in assay [6], 1.42; in assay [7], 0.5. Besides, the Ki (commonly the dissociation constant of the complex between target and ligand, obtained from inhibition or displacement) in [2] is above 100 µM; in assay [9] it was 0.09 µM; in assay [10], 0.3 µM; in assay [11] it was 71 µM. In addition, the pD2 in assay [3] turned out to be 4.57; in [4] it was 6.63; in [5], 5.36; in [8], 4.6.

As to `CC(C)N1CCCC(O)(c2ccc(O)c(O)c2)C1` (stereo not drawn), the Ki came out at 60 µM in assay [2], 4.8 µM in assay [9], 36 µM in [10] and 92 µM in [11]. Moreover, the pD2 was found to be 3.5 in [3], 4.57 in [4] and 4.64 in assay [5]. For the same compound, the values for the Intrinsic activity in [6] and in assay [12] were 0.89 and 0.16, respectively.

Turning to `CC(C)N1CCOC(c2ccc(O)c(O)c2)C1` (stereo not drawn), the Intrinsic activity in assay [13] was 0.93; in assay [15], 0.88; in [18], 0.87; in assay [20] it was 0.77. Also, the Ki in [14] stood at 5.1 µM; in [16], 36 µM; in assay [23] it was 48 µM; in assay [10], 6.7 µM. Besides, the pD2 came out at 5.91 in assay [17]; 4.62 in assay [19]; 5 in assay [21]; 5.74 in assay [22]; 6.34 in [24].

Source of the values: ChEMBL document CHEMBL1125402, “Conformational effects on the activity of drugs. 13. A revision of previously proposed models for the activation of alpha- and beta-adrenergic receptors” (J Med Chem, 1992).
